We go through 74 compounds from PubChem BioAssay AID1996.

The structures appear in SMILES notation. In brackets after ≈: the same amount, converted by molar mass. A value given as a limit tells only on which side of the number the result lay.

The conditions of this data set: buffer; pH 7.4; 200.0 µM.
The kinetic solubility is solubility judged after dilution from a stock solution rather than from solid. With `O=C(CN1C(=O)NC2NC(=O)NC21)N/N=C/c1ccccc1O` (centres undefined), the kinetic solubility was more than 47.7 µg/mL.

Turning to `CCCOc1ccc(-c2cn3ccccc3n2)cc1`, the kinetic solubility amounted to 2.3 µg/mL (≈ 9.12 µM).

On to `Nc1cc(Nc2ccccc2)c2nonc2c1[N+](=O)[O-]`, for which the solubility (kinetic) was 0.5 µg/mL (≈ 1.84 µM).

In turn, `CC(=O)N1C[C@H](O)C[C@H]1C(=O)O` yielded a kinetic solubility of more than 26 µg/mL.

The compound `O=C(NCc1ccc(Cl)cc1)c1csc(-c2cccnc2)n1` yielded a kinetic solubility of 37.9 µg/mL (≈ 115 µM).

For `COc1ccc(C(=O)CN2C(=O)NC3(CCc4ccccc43)C2=O)cc1` (centres undefined), the solubility (kinetic) was determined as 25.3 µg/mL (≈ 72.2 µM).

`CCN(C(=O)c1ccc(Cl)c([N+](=O)[O-])c1)c1ccccc1` returned a solubility (kinetic) of 35.8 µg/mL (≈ 117 µM).

Compound `O=C(OCc1nc2ccsc2c(=O)[nH]1)c1ccccc1` displayed a kinetic solubility of more than 42.9 µg/mL.

Consider `Cc1cc(Br)ccc1NC(=O)CSCc1c(C)noc1C`, for which the solubility (kinetic) turned out to be 30.1 µg/mL (≈ 81.5 µM).

`Cc1cccc(C(=O)OCC(=O)N2CCc3ccccc3C2)c1O` gave a kinetic solubility of 6.8 µg/mL (≈ 20.9 µM).

`Clc1ccc(-c2csc(-c3ccncc3)n2)cc1` registered a solubility (kinetic) of 0.3 µg/mL (≈ 1.1 µM).

Regarding `CC(C)OCc1ccc(C(=O)N2CCN(CC(=O)N3CCCC3)CC2)cc1`, the solubility (kinetic) was more than 56 µg/mL.

`O=S(=O)(c1ccc2c(c1)CCCN2)N1CCCCC1` gave a solubility (kinetic) of more than 42.1 µg/mL.

As to `Cc1cc(/C=C2/C(=O)NC(=O)N(c3ccc(Br)cc3)C2=O)c(C)n1C`, the solubility (kinetic) came to 5.3 µg/mL (≈ 13.2 µM).

As to `COc1cc2ncnc(NCc3ccc4c(c3)OCO4)c2cc1OC`, the solubility (kinetic) turned out to be 3.3 µg/mL (≈ 9.72 µM).

`O=C(Nc1ccc(S(=O)(=O)N2CCCCC2)cc1)c1ccco1` yielded a kinetic solubility of 46.2 µg/mL (≈ 138 µM).

In turn, `Cc1cc(C(=O)N2CCOCC2)ccc1[N+](=O)[O-]` had a kinetic solubility of more than 37.5 µg/mL.

Consider `O=C(/C=C/c1ccccc1)Nc1cccnc1Oc1ccccc1F`, for which the solubility (kinetic) is 2.7 µg/mL (≈ 8.08 µM).

For the compound `Cc1ccccc1OCCCN1CCOCC1`, the kinetic solubility was 31.3 µg/mL (≈ 133 µM).

In the case of `CCOC(=O)C1CCN(S(=O)(=O)c2ccccc2[N+](=O)[O-])CC1`, the kinetic solubility stood at 44.1 µg/mL (≈ 129 µM).

Compound `O=S(=O)(Nc1ccccc1O)c1cccc2cccnc12` gave a kinetic solubility of 43 µg/mL (≈ 143 µM).

`Nc1nc(NCc2ccc(Cl)cc2)nc(NCCO)c1[N+](=O)[O-]` yielded a solubility (kinetic) of 45.9 µg/mL (≈ 135 µM).

Consider `CCOCC(=O)Nc1ccc(S(=O)(=O)NCC2CCCO2)cc1` (centres undefined), for which the kinetic solubility was more than 51.4 µg/mL.

Take `CCCCN1C(C(=O)Nc2cc(C)on2)=C(O)c2ccccc2S1(=O)=O`: the solubility (kinetic) was more than 56.6 µg/mL.

With `Nc1nc(-c2cc(Cl)cc(Cl)c2OC(F)F)cs1`, the solubility (kinetic) was 2.3 µg/mL (≈ 7.39 µM).

Consider `O=C(NC12CC3CC(CC(C3)C1)C2)c1ccc([N+](=O)[O-])cc1`, for which the solubility (kinetic) stood at 5.4 µg/mL (≈ 18 µM).

Compound `Cc1nc(NC(=O)CCl)sc1C(=O)N(C)C` displayed a solubility (kinetic) of more than 39.3 µg/mL.

Compound `COC(=O)c1ccccc1NC(=O)CN1CCCCCC1` displayed a kinetic solubility of 31.6 µg/mL (≈ 109 µM).

`CC(=O)Nc1nonc1NC(=O)COc1ccccc1` had a solubility (kinetic) of more than 41.4 µg/mL.

The compound `COc1cc(C=NNC(=O)c2ccccc2-n2cccc2)ccc1O` came in with a kinetic solubility of more than 50.3 µg/mL.

`COC(=O)C1=C(O)/C(=C/c2cccc(OC)c2O)N=C1C` had a kinetic solubility of 35.1 µg/mL (≈ 121 µM).

On to `CN[C@H]1CC[C@@H](c2ccc(Cl)c(Cl)c2)c2ccccc21`, for which the kinetic solubility is more than 45.9 µg/mL.

Compound `O=C(NC(=S)Nc1ccccc1C(=O)O)c1cncc(Br)c1` displayed a kinetic solubility of more than 57 µg/mL.

The compound `COc1c(C)cc(C(=O)C2CCCN(C(=O)/C=C/c3ccccn3)C2)cc1C` (centres undefined) came in with a kinetic solubility of 40.6 µg/mL (≈ 107 µM).

For the compound `O=CN1c2ccccc2CSc2ccccc21`, the solubility (kinetic) amounted to 32.9 µg/mL (≈ 136 µM).

`CC(=O)C1=C(C)NC2=C(C(=O)CC(C)(C)C2)C1C` (centres undefined) showed a solubility (kinetic) of more than 37.1 µg/mL.

The compound `COc1ccc(N(C=O)C(=S)SC)cc1` displayed a solubility (kinetic) of 2.7 µg/mL (≈ 11.2 µM).

`O=C1OCCN1S(=O)(=O)Nc1ccccc1` gave a kinetic solubility of more than 36.3 µg/mL.

`Cc1c(C(=O)O)sc2nc(/C=C/c3cccc(F)c3)[nH]c(=O)c12` registered a kinetic solubility of 41.3 µg/mL (≈ 125 µM).

The compound `COc1cccc(NC(=O)Cn2cc(C(=O)C3CC3)c3ccccc32)c1` displayed a solubility (kinetic) of 0.8 µg/mL (≈ 2.3 µM).

`COCCCNC(=S)Nc1ccc(C)cc1[N+](=O)[O-]`: the solubility (kinetic) was 40.1 µg/mL (≈ 142 µM).

Compound `O=C(COC(=O)c1cccnc1Cl)NCC1CCCO1` (centres undefined) yielded a kinetic solubility of more than 44.8 µg/mL.

For the compound `Cc1cccc(NC(=S)NCCc2ccccn2)c1`, the kinetic solubility was more than 40.7 µg/mL.

`C[n+]1c(-c2ccccc2)sc2ccccc21.[O-][Cl+3]([O-])([O-])[O-]`: the solubility (kinetic) is more than 48.9 µg/mL.

`Cn1ccnc1SCC(=O)Nc1nc2c(F)c(F)c(F)cc2s1` registered a solubility (kinetic) of 0.6 µg/mL (≈ 1.67 µM).

`Cc1cc(C(=O)Cn2c(CO)nc3ccccc32)c(C)n1C` had a solubility (kinetic) of more than 44.6 µg/mL.

With `N#C/C(C(N)=O)=C1/CCCN1Cc1ccccc1`, the solubility (kinetic) is more than 36.2 µg/mL.

As for `Cc1cc(Cl)cc(C)c1OCCNCc1ccccc1.O=C(O)C(=O)O`, the solubility (kinetic) was determined as 44.5 µg/mL.

`O=C1CSC(c2cccnc2)N1c1cccc(Cl)c1` (centres undefined): the solubility (kinetic) came to 43.3 µg/mL (≈ 149 µM).

The compound `O=C(CN1C(=O)C2CCCCC2C1=O)Nc1ccccc1C(=O)O` (centres undefined) showed a solubility (kinetic) of more than 49.6 µg/mL.

`N#Cc1c(-c2cccs2)cc(-c2cccs2)[nH]c1=O` came in with a kinetic solubility of 0.7 µg/mL (≈ 2.46 µM).

In turn, `CC(=O)Nc1cccc(-c2nc3ccccc3[nH]2)c1` displayed a solubility (kinetic) of more than 37.7 µg/mL.

On to `COc1cccc(NC(=O)COC(=O)c2ccc3ccccc3n2)c1`, for which the solubility (kinetic) was 43.4 µg/mL (≈ 129 µM).

Turning to `Cc1oc(/N=C/c2ccccc2)c(C#N)c1C`, the kinetic solubility was found to be 9.2 µg/mL (≈ 41 µM).

Compound `CN(C)c1cccc(NC(=O)c2cccc3ccccc23)c1` showed a solubility (kinetic) of 6.1 µg/mL (≈ 21 µM).

Turning to `COc1ccc(C(C)(C)C)cc1NC(=O)CCNC(=O)c1ccco1`, the kinetic solubility was more than 51.7 µg/mL.

Turning to `COc1cccc2cc(C(=O)N3CCCCCCC3)c(=O)oc12`, the kinetic solubility was more than 47.3 µg/mL.

`Cc1ccccc1CNC(=O)C1CCCN(c2cnccn2)C1` (centres undefined) displayed a solubility (kinetic) of 44.3 µg/mL (≈ 143 µM).

In the case of `Cl.Clc1cccc(N2CCNCC2)c1`, the solubility (kinetic) was more than 35 µg/mL.

In the case of `O=C(C1CCCN(S(=O)(=O)c2ccccc2)C1)N1CCCCC1` (centres undefined), the solubility (kinetic) was found to be 50.4 µg/mL (≈ 150 µM).

Regarding `O=C(/C=C/c1ccc(F)cc1)N1CCN(Cc2ccccc2)CC1`, the kinetic solubility was 44.5 µg/mL (≈ 137 µM).

`O=C1c2cccc3c2N(CCC3)C(=O)C1(F)c1ccccc1` (centres undefined) returned a kinetic solubility of more than 44.3 µg/mL.

`Cc1cc(NC(=O)CN2C(=O)NC(C)(CC(C)C)C2=O)no1` (centres undefined) had a solubility (kinetic) of more than 46.3 µg/mL.

For `Cc1ccccc1NC(=O)c1cccnc1`, the kinetic solubility was 20.7 µg/mL (≈ 97.5 µM).

The compound `CCCOc1cccc(C(=O)NCCNC(=O)c2cnccn2)c1` registered a kinetic solubility of 48 µg/mL (≈ 146 µM).

On to `Cc1nccn1-c1c([N+](=O)[O-])c(=O)n(C)c2ccccc12`, for which the kinetic solubility was more than 42.6 µg/mL.

Take `CCC1(C)NC(C(=O)O)Cc2c1[nH]c1ccccc21` (centres undefined): the solubility (kinetic) was more than 38.7 µg/mL.

As for `CC(=O)c1cccc(-n2c(CCC(=O)O)ccc2-c2ccccc2)c1`, the kinetic solubility was more than 50 µg/mL.

`O=S(=O)(NC1=NCCC1)c1cccc(NC(=S)Nc2ccc(OC(F)F)cc2)c1` displayed a solubility (kinetic) of more than 66.1 µg/mL.

Compound `Cc1noc(-c2ccc(Cl)cc2)c1C(=O)O/N=C(\N)c1ccc(C(C)(C)C)cc1` came in with a kinetic solubility of 0.5 µg/mL (≈ 1.21 µM).

In turn, `O=C(Nc1ccccc1C(=O)N1CCCCC1)c1cccs1` yielded a kinetic solubility of more than 47.2 µg/mL.

In turn, `CNC(=O)CSc1nnc(-c2ccco2)n1-c1cc(C)ccc1C` displayed a solubility (kinetic) of more than 51.4 µg/mL.

The compound `CC(=O)c1sc(Nc2cccc(C)c2)nc1C` returned a solubility (kinetic) of 3 µg/mL (≈ 12.2 µM).

`O=C(COC(=O)C12CC3CC(CC(C3)C1)C2)NCc1ccccc1`: the kinetic solubility was found to be 10.2 µg/mL (≈ 31.2 µM).
